Experimental data reported in ChEMBL document CHEMBL1201862, “PubChem BioAssay data set” (2004).
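Dose response: 5 concentrations. Exposure: 48 h. Format: 96-well plates. Endpoint: linear interpolation; highest concentration if not reached. Here, GI50 denotes the concentration required for 50% inhibition of growth.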 Active and inactive are the calls of the source. Cut-off read from the data, not from the text of the source: active = GI50 up to about 1.1 µM and inactive = higher.

Tests used:
Test in all cases: NCI-60 cell line screen, 48 h
[1] = test system: A498
[2] = test system: A549
[3] = test system: CAKI-1
[4] = test system: CCRF-CEM
[5] = test system: COLO 205
[6] = test system: DLD-1
[7] = test system: DMS-114
[8] = test system: DMS-273
[9] = test system: EKVX
[10] = test system: HCC 2998
[11] = test system: HCT-116
[12] = test system: HCT-15
[13] = test system: HL-60
[14] = test system: HOP-18
[15] = test system: HOP-62
[16] = test system: HOP-92
[17] = test system: HT-29
[18] = test system: IGROV-1
[19] = test system: K562
[20] = test system: KM-20L2
[21] = test system: KM12
[22] = test system: LOX IMVI
[23] = test system: M19-MEL
[24] = test system: MCF7
[25] = test system: MOLT-4
[26] = test system: Malme-3M
[27] = test system: NCI-H226
[28] = test system: NCI-H23
[29] = test system: NCI-H460
[30] = test system: NCI-H522
[31] = test system: NCI/ADR-RES
[32] = test system: OVCAR-3
[33] = test system: OVCAR-4
[34] = test system: OVCAR-5
[35] = test system: OVCAR-8
[36] = test system: RPMI-8226
[37] = test system: RXF 393
[38] = test system: SF-268
[39] = test system: SF-295
[40] = test system: SF-539
[41] = test system: SK-MEL-28
[42] = test system: SK-MEL-2
[43] = test system: SK-MEL-5
[44] = test system: SK-OV-3
[45] = test system: SN12C
[46] = test system: SNB-19
[47] = test system: SNB-75
[48] = test system: SNB-78
[49] = test system: SW-620
[50] = test system: U-251
[51] = test system: UACC-257
[52] = test system: UACC-62
[53] = test system: UO-31
[54] = test system: XF498
[55] = test system: 786-0
[56] = test system: ACHN
[57] = test system: BT-549
[58] = test system: DU-145
[59] = test system: Hs-578T
[60] = test system: M14
[61] = test system: MDA-MB-231
[62] = test system: MDA-MB-435
[63] = test system: MDA-N
[64] = test system: PC-3
[65] = test system: SR
[66] = test system: T47D
[67] = test system: TK-10

`Cc1nc2ccccc2c(=O)n1CC(=O)O` was tested, and the GI50 [1] was > 100 µM (inactive), the GI50 [2] was > 100 µM (inactive) and the GI50 [3] was > 100 µM (inactive). For the same compound, the GI50 [4] was > 100 µM (inactive), the GI50 [5] was > 100 µM (inactive) and the GI50 [6] was > 100 µM (inactive). For the same compound, the GI50 [7] was > 100 µM (inactive), the GI50 [8] was > 100 µM (inactive) and the GI50 [9] was > 100 µM (inactive). The GI50 [10] was > 100 µM (inactive), the GI50 [11] was > 100 µM (inactive) and the GI50 [12] was greater than 100 µM. The GI50 [13] was > 100 µM (inactive), the GI50 [14] was > 100 µM (inactive) and the GI50 [15] was > 100 µM (inactive). The GI50 [16] was > 100 µM (inactive), the GI50 [17] was > 100 µM (inactive) and the GI50 [18] was > 100 µM (inactive). For the same compound, the GI50 [19] was > 100 µM (inactive), the GI50 [20] was > 100 µM (inactive) and the GI50 [21] was > 100 µM (inactive). The GI50 [22] was > 100 µM (inactive), the GI50 [23] was > 100 µM (inactive) and the GI50 [24] was > 100 µM (inactive). The GI50 [25] was > 100 µM (inactive), the GI50 [26] was > 100 µM (inactive) and the GI50 [27] was > 100 µM (inactive). The GI50 [28] was > 100 µM (inactive), the GI50 [29] was > 100 µM (inactive) and the GI50 [30] was > 100 µM (inactive). For the same compound, the GI50 [31] was > 100 µM (inactive), the GI50 [32] was > 100 µM (inactive) and the GI50 [33] was > 100 µM (inactive). The GI50 [34] was > 100 µM (inactive), the GI50 [35] was > 100 µM (inactive) and the GI50 [36] was > 100 µM (inactive). The GI50 [37] was > 100 µM (inactive), the GI50 [38] was > 100 µM (inactive) and the GI50 [39] was > 100 µM (inactive). The GI50 [40] was > 100 µM (inactive), the GI50 [41] was > 100 µM (inactive) and the GI50 [42] was > 100 µM (inactive). For the same compound, the GI50 [43] was > 100 µM (inactive), the GI50 [44] was > 100 µM (inactive) and the GI50 [45] was > 100 µM (inactive). For the same compound, the GI50 [46] was > 100 µM (inactive), the GI50 [47] was > 100 µM (inactive) and the GI50 [48] was > 100 µM (inactive). The GI50 [49] was > 100 µM (inactive), the GI50 [50] was > 100 µM (inactive) and the GI50 [51] was > 100 µM (inactive). For the same compound, the GI50 [52] was > 100 µM (inactive), the GI50 [53] was > 100 µM (inactive) and the GI50 [54] was > 100 µM (inactive).
With `CCc1c(CNc2ccc(C(=O)NC(CC(=O)O)C(=O)O)cc2)ccc2nc(N)nc(N)c12` (stereo not drawn) the GI50 [55] was < 0.01 µM (active), the GI50 [1] was 2.03 µM (inactive) and the GI50 [2] was < 0.0169 µM (active). For the same compound, the GI50 [56] was < 0.01 µM (active), the GI50 [57] was 25.4 µM (inactive) and the GI50 [3] was < 0.0198 µM (active). For the same compound, the GI50 [4] was < 0.0128 µM (active), the GI50 [5] was 16.7 µM (inactive) and the GI50 [6] was < 0.0223 µM (active). For the same compound, the GI50 [7] was < 0.0262 µM (active), the GI50 [8] was < 0.0202 µM (active) and the GI50 [58] was 0.0125 µM (active). For the same compound, the GI50 [9] was > 54.6 µM (inactive), the GI50 [10] was 0.0465 µM (active) and the GI50 [11] was < 0.01 µM (active). The GI50 [12] was less than 0.0164 µM, the GI50 [13] was < 0.0316 µM (active) and the GI50 [14] was > 61.9 µM (inactive). For the same compound, the GI50 [15] was 0.267 µM (active), the GI50 [16] was 6.44 µM (inactive) and the GI50 [17] was < 0.0178 µM (active). For the same compound, the GI50 [59] was > 1000 µM (inactive), the GI50 [18] was < 0.0177 µM (active) and the GI50 [19] was < 0.01 µM (active). For the same compound, the GI50 [20] was 0.451 µM (active), the GI50 [22] was < 0.0162 µM (active) and the GI50 [60] was < 0.01 µM (active). For the same compound, the GI50 [23] was 0.133 µM (active), the GI50 [24] was < 0.0182 µM (active) and the GI50 [61] was > 100 µM (inactive). The GI50 [62] was < 0.01 µM (active), the GI50 [63] was < 0.01 µM (active) and the GI50 [25] was < 0.0182 µM (active). The GI50 [26] was 0.953 µM (active), the GI50 [27] was > 100 µM (inactive) and the GI50 [28] was < 0.0291 µM (active). For the same compound, the GI50 [29] was < 0.0158 µM (active), the GI50 [30] was 0.914 µM (active) and the GI50 [31] was 0.0288 µM (active). For the same compound, the GI50 [32] was 10.1 µM (inactive), the GI50 [33] was > 48.8 µM (inactive) and the GI50 [34] was 1.82 µM (inactive). For the same compound, the GI50 [35] was < 0.0184 µM (active), the GI50 [64] was 305 µM (inactive) and the GI50 [37] was > 4.65 µM (inactive). The GI50 [38] was < 0.0198 µM (active), the GI50 [39] was 0.0371 µM (active) and the GI50 [40] was < 0.0292 µM (active). The GI50 [41] was 10.2 µM (inactive), the GI50 [42] was > 100 µM (inactive) and the GI50 [43] was < 0.0346 µM (active). For the same compound, the GI50 [44] was > 20 µM (inactive), the GI50 [45] was < 0.0288 µM (active) and the GI50 [46] was 2.39 µM (inactive). The GI50 [47] was 3.52 µM (inactive), the GI50 [48] was > 60.3 µM (inactive) and the GI50 [65] was < 0.01 µM (active). For the same compound, the GI50 [49] was < 0.0138 µM (active), the GI50 [66] was 20.5 µM (inactive) and the GI50 [67] was 15.3 µM (inactive). The GI50 [51] was 5.19 µM (inactive), the GI50 [52] was < 0.0177 µM (active) and the GI50 [53] was 0.75 µM (active). For the same compound, the GI50 [54] was > 100 µM (inactive).
